Earlier results on two substances are cited in patent US20140349947A1, “HAIR GROWTH AGENT (EMBODIMENTS) AND METHOD FOR HAIR REGROWTH” (priority 2012, published 2014).

Test in data set [1]: not given
This is another data set of the same source.

The mark [2] stands for this setting: in ointments and gels, dose up to 1,000 IU/g.

On to Low molecular weight heparin, for which the Bioavailability entry is reported as “high”.
As for heparin sodium [Unfractionated heparin], the Bioavailability entry was “low”. Further, in data set [1] (after a single skin application), the “Duration of the effects of heparin in tissues” value is “up to 8 hours”. In data set [1] (after application of ointment or gel), the “Part of preparation deposited in the upper layers of skin” value is listed as “up to 50%”. Also, in data set [1] (setting [2]), the “Effect on bleeding time” value is “does not affect the bleeding time” and the Systemic effect entry is recorded as “does not have a systemic effect”.
